The values that follow come from patent publication US5595730A, “Lactate dehydrogenase inhibitors in cosmetic compositions” (priority 1996, dated 1997).

Data set [1] relates to Normal human epidermal keratinocytes (NHEK). Kind of data set: Keratinocyte proliferation (DNA content, fluorometric). The settings on record: Table 8, single agent alone. Format: cell-based. As to the method:
Normal human epidermal keratinocytes (NHEK) derived from neonatal foreskin were used for all experiments. Media were purchased from Clonetics Corp., San Diego, Calif. Cell stocks frozen in passage 2 were grown in Keratinocyte Growth Medium (KGM) and passaged when 70-80% confluent. Cells were seeded in 96 well plates (Corning) at a density of 7500 cells/well in KGM. After 24 hours, cells were rinsed and dosed with test compounds in 200 μl of Keratinocyte Basal Medium (KBM). Plates were incubated for three days at 37° C., 5% CO2. Cell proliferation was estimated by assaying for DNA content by a fluorometric method described by Rago et al. (Analytical Biochemistry, 191:31-34, 1990). Medium was removed and cells were rinsed with phosphate buffered saline solution. 100 μl of sterile distilled water was added to each well and plates were frozen at -70° C. for one and a half hours. Plates were thawed for one hour at which time 100 μl of a 20 ug/ml solution of Bisbenzimide H33258 fluorochrome (Calbiochem Corp., La Jolla, Calif.) was added to each well. The fluorochrome was prepared just prior to use in 10 mM Tris, 1 mM EDTA, 4M NaCI, pH 7.4. Plates were read in a Millipore Cytofluor fluorescent plate reader to quantify DNA (excitation 360 nm, emission 460 nm). Percent increase over control was calculated from blank-corrected readings as (treated-untreated)/(untreated)*100. Each data point in the Tables below represents a mean of 5 or 6 replicates.
The procedure of Example 2 was repeated except that various co-active ingredients were tested for their ability to stimulate keratinocyte proliferation.
The procedure of Example 2 was repeated to test the effect of combination of an LDH inhibitor with another carboxylic acid on keratinocyte proliferation.

Another data set deals with procollagen 1. Kind of data set: Assay for collagen synthesis (secreted procollagen 1 immunoassay, fibroblasts). The note with it: actives 0.2 to 20 mM, serum-free medium, 48 hours.

Procedure for procollagen 1: Neonatal human dermal fibroblasts were purchased from Clonetics Corp., San Diego, Calif. All materials for cell culture were purchased from Life Technologies, N.Y. Cells were maintained in DMEM with 10% fetal bovine serum and used in passages 5-10. Confluent 96-well plates containing fibroblasts were treated with actives (0.2 to 20 mM) in serum-free medium for 48 hours. […] This was carried out in a BioDot SF apparatus according to the manufacturer's instructions (BioRad Labs, CA) and the blot was developed using a Vectastain Kit (PK6104, Vector Labs, CA) as per the manufacturer's directions. Color intensity was quantitated using an Ultroscan XL densitometer (Pharmacia LKB). Fold increase was calculated as (density of treated)/untreated.

As to `O=C(O)CCC(=O)O` [Succinate], the “Keratinocyte proliferation, % Increase Over Control” value amounted to 48% in data set [1] (0.156 mM); 48% in data set [1] (0.313 mM); 39% in data set [1] (0.625 mM); 51% in data set [1] (1.25 mM); 58% in data set [1] (2.5 mM); 0% in data set [1] (5.0 mM). In addition, the “Collagen Synthesis, Maximum fold over Control” value with procollagen 1 is 2.8 fold.
